Laboratory results published in patent publication US20110053995A1, “BENZENESULFONANILIDE COMPOUND INHIBITORS OF UREA TRANSPORTERS” (THE REGENTS OF THE UNIVERSITY OF CALIFORNIA, priority 2006, published 2011).

Experiments:
mouse UT-B = biological target: T1, mouse UT-B (Mus musculus, UniProt Q8VHL0); test: Stopped-flow light scattering, N-methylurea transport in mouse RBCs; type: cell-based
T1 construct: the indicator cells are red blood cells that endogenously express the UT-B urea transporter; endogenous in cells; host or cells: red blood cells of wild-type CD1 mice
T1 sequence (Q8VHL0 1-384): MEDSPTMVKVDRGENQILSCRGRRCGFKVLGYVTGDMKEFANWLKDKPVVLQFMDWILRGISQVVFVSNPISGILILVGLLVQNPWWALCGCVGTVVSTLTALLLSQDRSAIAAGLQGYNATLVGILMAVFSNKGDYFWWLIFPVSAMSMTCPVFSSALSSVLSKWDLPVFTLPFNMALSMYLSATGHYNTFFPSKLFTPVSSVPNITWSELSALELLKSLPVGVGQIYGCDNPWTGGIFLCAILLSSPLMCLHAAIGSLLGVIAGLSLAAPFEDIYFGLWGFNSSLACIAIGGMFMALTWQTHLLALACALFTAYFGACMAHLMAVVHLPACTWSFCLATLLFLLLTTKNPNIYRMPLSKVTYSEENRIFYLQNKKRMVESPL
Description: As a positive control, 0.7 mM phloretin was added to the RBC suspension prior to stopped-flow experiments. Measurements of water permeability were carried out similarly, with sucrose (cell-impermeant) used instead of urea to establish a 250-mM osmotic gradient. As a positive control, HgCl2 (0.3 mM) was added to the RBC suspension prior to stopped-flow measurements. Osmotic water permeability coefficients (Pf) were computed from light scattering data as described (van Hoek et al., J Biol Chem. 267:18267-69 (1992)).
For stopped-flow experiments, a 100-mM gradient of urea (for human RBCs) or N-methylurea (for mouse RBCs) was used to minimize competition effects (apparent urea and N-methylurea affinities at 23° C. are approximately 200 and approximately 100 mM, respectively) (Mayrand et al., J Gen Physiol. 81:221-37 (1983)). N-methylurea, with greater than 2-fold slower RBC permeability than urea, was used in mouse studies to better resolve overlapping water and urea transport kinetics. Dose-response data were also collected for human RBCs using a high concentration of 1 M urea to distinguish between competitive vs. non-competitive inhibitor binding.
For these studies using mouse RBCs, methylurea was used as the transported solute instead of urea because its transport is slower, allowing better estimation of EC50 values.

UT-B = biological target: T2, UT-B (Homo sapiens, UniProt Q13336); test: Stopped-flow light scattering, urea transport in human RBCs; type: cell-based; conditions: for inhibition of urea transport, inhibitor added externally only (sidedness): inhibitor only in urea-containing solution at time of stopped-flow; for reversibility of inhibition after washing of RBCs: 10 min pre-incubation (0.1 μM ureainh-101, 0.4 μM ureainh-302), then washout
T2 construct: a red blood cell (i.e., erythrocyte), which endogenously expresses the urea transporter UT-B; endogenous in cells; host or cells: human red blood cells (whole venous blood, single donor)
T2 sequence (Q13336 1-389): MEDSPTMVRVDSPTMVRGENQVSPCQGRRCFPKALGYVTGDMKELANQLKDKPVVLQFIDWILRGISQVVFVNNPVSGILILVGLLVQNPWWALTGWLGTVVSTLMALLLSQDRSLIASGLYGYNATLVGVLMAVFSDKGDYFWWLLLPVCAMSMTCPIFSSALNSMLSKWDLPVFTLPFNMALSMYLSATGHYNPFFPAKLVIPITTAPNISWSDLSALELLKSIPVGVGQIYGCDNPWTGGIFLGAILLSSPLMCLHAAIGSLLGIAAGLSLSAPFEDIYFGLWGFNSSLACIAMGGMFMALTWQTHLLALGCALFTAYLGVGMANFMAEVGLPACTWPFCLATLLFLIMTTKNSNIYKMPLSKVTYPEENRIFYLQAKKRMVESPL
Description: RBC urea and water permeabilities were assayed by stopped-flow light scattering using a Hi-Tech Sf-51 instrument (Wiltshire, UK). […] After an initial osmotic shrinking phase, the kinetics of increasing cell volume caused by urea influx were measured as the time-course of 90° scattered light intensity at 530 nm, with increasing cell volume resulting in reduced scattered light intensity. As a positive control, 0.7 mM phloretin was added to the RBC suspension prior to stopped-flow experiments. Measurements of water permeability were carried out similarly, with sucrose (cell-impermeant) used instead of urea to establish a 250-mM osmotic gradient. As a positive control, HgCl2 (0.3 mM) was added to the RBC suspension prior to stopped-flow measurements. Osmotic water permeability coefficients (Pf) were computed from light scattering data as described (van Hoek et al., J Biol Chem. 267:18267-69 (1992)).
After repeating the 96-well plate RBC lysis assay to confirm compound activity (see Example 2), bona fide urea transport inhibition was determined by stopped-flow light scattering from the kinetics of urea influx (RBC swelling) in response to an inwardly directed urea gradient. Rapid mixing of an RBC suspension with a hyperosmolar solution containing excess 250 mM urea produced rapid cell shrinking due to osmotic water efflux, followed by cell swelling as urea (and water) influx occurred.
To determine EC50 values for urea transport inhibition directly, RBC urea transport was measured by stopped-flow light scattering using a non-saturating concentration of extracellular urea (to avoid possible competition effects). EC50 for inhibition of RBC urea transport was determined independently by comparing stopped-flow light scattering curves to a model of cell shrinking-swelling. […]
The two coupled differential equations describing water efflux and solute influx in response to externally added urea or methylurea were numerically integrated using the forward Euler method (Δt=0.01 s) to reproduce the biphasic changes in cell volume observed experimentally. […] For each time step, a new cell volume (normalized to the initial size; V(i+1)/V(0)) and a new cell permeant concentration (U(i+1)) were calculated from V(i+1)/V(0)=V(i)/V(0)−Δt·Pf·(S/V(0))·vw·[Ie(1−V(i)/V(0))+(Ue−Uc(i))] and Uc(i+1)=Uc(i)/V(0)−Δt·Us·(S/V(0))·vw·(Ue−Uc(i)). […] The product of Pf and the surface area-to-volume ratio (S/V(0)) was determined to be 3.4×10^2 s^−1 and 8.5×10^2 s^−1 for human and mouse erythrocytes, respectively, from water permeability measurements. […]

inhibitory potency against mouse UT-B (mouse UT-B)	inhibition of urea transport, inhibitor added externally only (sidedness) (UT-B; 0.2 μM)	reversibility of inhibition after washing of RBCs (UT-B)	inhibition of urea transport, inhibitor added externally only (sidedness) (UT-B; 0.1 μM)	SMILES
good inhibitory potencies	had a sizable effect	fully reversible inhibition		Cc1ccc(Nc2nnc(-c3ccc(C(N)=O)cc3)c3ccccc23)cc1 [ureainh-302]
good inhibitory potencies		fully reversible inhibition	did not inhibit urea transport	NC(=O)CSc1oc(-c2ccccc2)nc1S(=O)(=O)c1ccc(Br)cc1 [ureainh-101]
